According to patent US6949528B1, “Compositions containing lysophosphatidic acids which inhibit apoptosis and uses thereof” (priority 1998, dated 2005):

Legend:
Format in all cases: cell-based
[1] = tested on: rat neonatal cardiomyocytes; assay: Cardiomyocyte death induced by serum/glucose deprivation; conditions: serum/glucose deprivation
Description: (§1) Cardiomyocytes were prepared from hearts of day-old Sprague Dawley rats by trypsinization and mechanical disaggregation (Simpson, (1985)) Circ. Res. 56:884-894. The cells were resuspended in MEM, 1×MEM vitamins (Gibco), 5% fetal bovine serum and 50 U/ml penicillin-G and pre-plated for 30 minutes to reduce contamination of non-myocytes. The non-adherent cardiac myocytes were separated and seeded in 2 ml in 35 mm dishes at a density of 3.5×10^5 viable cells per ml. The cells were allowed to adhere for 16-24 hours in a 37° C./5% CO2 humidified incubator.
(§2) For serum deprivation, the medium was replaced with fresh serum-free RPMI, whereas serum/glucose deprivation was performed using glucose-free RPMI. The induction of cell death by adriamycin or C2-ceramide was accomplished by the addition of the agent prepared in serum-free RPMI. As a model of ischemia, cultures in serum and glucose free RPMI were placed in an airtight chamber and the latter was continuously perfused with oxygen-free gas overlay of 95% N2/5% CO2 for 8 hours at 37° C. To model reperfusion of the ischemic cells, 10% fetal bovine serum, 2 g/L of glucose were added and the cultures were returned to a normal oxygen gas overlay (37° C./5% CO2) in a humidified incubator for 16 hours.
T investigate effects of LPA, LPA plus other phospholipids, PEG or their mixtures on cell death, various combinations of these components were added to cells in serum free medium at the beginning of cytotoxic treatment.
(§3) Because cardiomyocytes are terminally differentiated non-dividing cells, viability was determined by measurement of the decrease in the relative number of adherent cells. […] Adherent cardiomyocytes were collected from culture dishes using 0.25% Trypsin/0.05% EDTA and counted on Coulter Counter ZM and Coulter Channelyzer 256.

[2] = tested on: rat neonatal cardiomyocytes; assay: Cardiomyocyte death induced by ischemia and reperfusion; conditions: in mixture with PEG, FIG. 14
Description: as §1
as §2, with “To model reperfusion of the ischemic cells, 10% fetal bovine serum, 2 g/L of glucose were added and the cultures were returned to a normal oxygen gas overlay (37° C./5% CO2) in a humidified incubator for 16 hours.” left out
as §3

C3H/10T1/2 cells = assay: Anti-apoptotic activity assay: serum deprivation of C3H/10T1/2 cells
[3] = serum-deprived C3H/10T1/2 cells, 24 hours of treatment

`CCCCCCCC/C=C\CCCCCCCC(=O)OCC(O)COP(=O)(O)O` (stereo not shown) [18:1 LPA, oleoyl-lysophosphatidic acid, reference compound] was tested, and the “Concentration ranges for cardiomyocyte protection” value [1] was 0.3 to 10 µM, the “Maximum effect relative to 18:1 LPA in cardiomyocytes” value [1] was 100% and the “protection against cardiomyocyte death” value [2] was “equally protect”. For the same compound, the cells protected (C3H/10T1/2 cells; 0.75 (g/ml added together with PS, FIG. 2)) was “approximately 75%”, the cells protected (C3H/10T1/2 cells; 1:1 PG:PC particles with 23.5% by weight 18:1-LPA, FIG. 3) was “about 57%” and the cells protected (C3H/10T1/2 cells; 5 (M, FIG. 5), medium alone 30%) was “about 62%”. The cells protected (C3H/10T1/2 cells; 5 (M, FIG. 6)) was 75%, the cells protected (C3H/10T1/2 cells; 15 (M, FIG. 6)) was 80% and the efficacy (C3H/10T1/2 cells; 18:1-LPA/PG particles with 5 to 10 mol % PE-PEG (2000 MW), FIG. 2) was “reduced efficacy”. For the same compound, the cells saved (C3H/10T1/2 cells; 23.5 weight percent with PG, FIG. 3) was “about 50%”, the cells protected (C3H/10T1/2 cells; 30% (by weight) mixture with 1:1 PA:PI, equivalent to Five Phospholipid Mixture at 10 (g/ml, FIG. 7), medium alone 38%) was “about 82%” and the “cells protected from apoptosis” value (C3H/10T1/2 cells; LPA equivalent to 10 (g/ml Five Phospholipid Mixture, 10% by weight with PG, FIG. 3)) was “approximately 65%”. The anti-apoptotic activity (C3H/10T1/2 cells; combined with BME (containing calcium) and filtered) was “appeared to be inhibited”, the anti-apoptotic activity (C3H/10T1/2 cells; combined with BSA in BME (containing calcium)) was “preserved the anti-apoptotic activity” and the protection from apoptosis (C3H/10T1/2 cells; combined with polyethylene glycol or BSA) was “protects serum-deprived 10T1/2 cells from apoptosis”. For the same compound, the “protection from serum deprivation-induced cell death” value (C3H/10T1/2 cells; incorporated into PC, PC/PE-PEG, or PC/EtPC, FIG. 8) was “effective in protecting cells from serum deprivation-induced cell death”, the cells protected (C3H/10T1/2 cells; incorporated into phosphatidyl glycerol (PG), FIG. 2) was “up to 90%” and the “Concentration for Max Effect” value (C3H/10T1/2 cells; [3]) was 10 µM. The “Maximum effect relative to 18:1 LPA” value (C3H/10T1/2 cells; [3]) was 100%.
